Assays:
Type in all cases: cell-based, Chinese hamster
Recombinant CHO cells [1] = assay: Content of the most acidic isoforms 7 and 8 (degree of sialylation) of secreted glycoprotein by AEX; conditions: for percentage of the most acidic isoforms: 0.75% (w/v) DMSO
Procedure: Throughout the entire description, above and below and including the examples, unless explicitly stated otherwise, the degree of sialylation is given in % (w/w) and was calculated as follows. Since the inventor had not available a method to directly measure the degree of sialylation (%, w/w), she estimated same indirectly from the relative content of the most acidic isoforms of each glycoprotein. Since isoforms 7 and 8 (see next paragraph) are the most acidic ones, she figured out that an increase of isoforms 7 and 8 is an indicator for the increased degree of sialylation. The inventor measured the distribution of the isoforms of a particular glycoprotein (e.g., of darbepoetin alfa, which is a cytokine) with AEX (anion exchange chromatography). AEX is not a quantitative method. Therefore, the inventor split the histogram into three parts as follows: the most basic isoforms 1, 2, and 3, the middle acidic isoforms 4, 5, and 6, and the most acidic isoforms 7 and 8. […] Therefore, the inventor compared, for each glycoprotein tested, the content (%, w/w) of the most acidic isoforms resulting from media without and from media with the additives according to the invention. In case their content increased, the inventor concluded that the degree of sialylation had likewise increased. Therefore, the degree of sialylation in the present application is given as the relative content of the most acidic isoforms (%, w/w). The increase in the degree of sialylation (of a particular glycoprotein obtained from a host cell culture using a medium with the additives according to the present invention vs. that of said glycoprotein obtained from a host cell culture using a medium without the inventive additives) is given on the basis of the increase of the content of the most acidic isoforms (%) after cultivating the host cells in the presence vs. absence of said additives. Recombinant CHO cells expressing high titres of the glycosylated human glycoproteins were cultivated in suspension culture using rich in-house standard medium without additives according to the invention. After 2 weeks of passages, the cells were first harvested and subsequently inoculated into the same medium, however, supplemented with a range of DMSO concentrations from 0.25% to 1.50% (w/v). The effect of DMSO on growth, productivity, degree of sialylation, and Neu5Gc content was studied. “One factor at the time”-experiments with different DMSO concentrations at 37° C. and 33° C., respectively, were performed at first in an attempt to determine the DMSO concentration and temperature which are best to minimise the Neu5Gc content on the glycoproteins secreted. To study the interaction between the parameters (i) DMSO concentration, (ii) time of DMSO addition, and (iii) time of the temperature shift (from 37° C. to 33° C.), further experiments were performed with the Design-Expert/Design-Ease programme (Stat-Ease, Inc., Minneapolis, Minn., USA) using the response surface method. Parameters (i), (ii), and (iii) were chosen as numeric factors and the axial points were set slightly out of already known ranges in order to cover a wide design space. One replicate on axial points, one replicate on factorial points and 4 centre points were performed. The results were analysed using the Design of Expert (DOE) software (Design-Expert, Version 7.1). The results of the shake flask experiments were confirmed in the Biostat®B bioreactor (Sartorius, B. Braun Biotech International, Germany). Exponentially growing cells were taken from cell culture flasks having a surface area of 225 cm^2 (Corning®Costar®). A Biostat®B bioreactor with a working volume of 5 litres was inoculated with 2×10^5 cells/ml. […] Following glycoprotein purification, the isoform distribution of the immuno-affinity purified glycoproteins was determined by anion exchange chromatography (AEX). The chromatographic separation of various isoforms is based on the differences in their charges. […]

Recombinant CHO cells [2] = assay: Titre of secreted glycoprotein by ELISA
Procedure: (§1) Cell viability was determined by the trypan blue exclusion method. The cell concentration was determined using a Vi-CELL™ Series Cell Viability Analyzer (Beckman Coulter, Fullerton, Calif., USA). Glucose, lactate, glutamine, and ammonia (NH4^+) concentrations were measured during the growth phase using a BioProfile Analyzer for mammalian cell culture (BioProfile 100 plus, Nova Biomedical, Waltham, USA). Additionally, oxygen and […] concentrations were monitored daily using pHOx (Stat Prophile pHOx Basic, Nova Biomedical, Waltham, USA). Secreted glycoprotein concentrations were quantified by enzyme linked immunosorbent assay (ELISA), and the titres were expressed in μg/ml.
The concentration of the secreted glycoproteins was quantified using an enzyme linked immunosorbent assay kit from R&D Systems (R&D Systems, Inc., Minneapolis, Minn., USA) according to the manufacturer's instructions. Microplate wells, pre-coated with monoclonal (mouse) antibodies specific for the respective glycoproteins expressed were first incubated with standard blank samples and specimens. […] The absorbance of the coloured solution was measured photometrically at 450 nm (Micro plate reader, Tecan, Columbus, USA) and was proportional to the concentration of the glycoprotein in the sample.

Recombinant CHO cells [3] = assay: Cell viability by trypan blue exclusion; conditions: 8 day batch cultures, all DMSO concentrations, times of addition and temperatures tested
Procedure: as §1
Initially, the inventor avoided the addition of DMSO to the cell culture at the beginning of the bioprocess, because […] speculated that such addition might not be optimal, since the cells had no time for an optimal lag phase-growth (adaptation). […] Viable cell density and viability of the cells were measured in the middle and at the end of that period. The final titre (concentration of each glycoprotein in the culture medium) was measured in the supernatants with ELISA. […] The content of Neu5Gc on the purified glycoproteins was determined, and the acidic isoform distribution reflecting the degree of sialylation was measured with AEX.

C[S+](C)[O-] [DMSO, dimethyl sulfoxide]
average content of the most acidic isoforms, all glycoproteins tested (Recombinant CHO cells [1]; 0.5% DMSO): 1.31%
average content of the most acidic isoforms, all glycoproteins tested (Recombinant CHO cells [1]; 0.75% DMSO): 1.28%
average content of the most acidic isoforms, all glycoproteins tested (Recombinant CHO cells [1]; 1% DMSO): 1.21%
average content of the most acidic isoforms, all glycoproteins tested (Recombinant CHO cells [1]; 1.25% DMSO): 1.26%
Isoforms 7&8, DOE point prediction (Recombinant CHO cells [1]; DMSO 0.75, temperature 37): 1.21%
percentage of the most acidic isoforms (Recombinant CHO cells [1]; bioreactor batch process): about 2.2%
percentage of the most acidic isoforms (Recombinant CHO cells [1]; shake flask batch process): about 1.35%
Titre, DOE point prediction (Recombinant CHO cells [2]; DMSO 0.75, temperature 37): 65.56 µg/mL
titre (Recombinant CHO cells [2]; darbepoetin alfa, with DMSO): ~57 µg/mL
final cell viability (Recombinant CHO cells [3]): above 97.5%

Source: patent publication US9562082B2, “Production of glycoproteins with low N-glycolylneuraminic acid (Neu5Gc) content” (LEK Pharmaceuticals D.D., priority 2009, dated 2017)
